Data on one molecule can be found in ChEMBL document CHEMBL5033993, “Design, Synthesis, and Evaluation of o-(Biphenyl-3-ylmethoxy)nitrophenyl Derivatives as PD-1/PD-L1 Inhibitors with Potent Anticancer Efficacy In Vivo” (J Med Chem, 2021).

The term IC50 denotes the concentration at which inhibition is half-maximal.

Activity calls are given as the source filed them. The rule behind the calls is not given here.

Data set [1] has as its system Lewis lung carcinoma. Kind of data set: Immunostimulatory activity in mouse lewis lung carcinoma cells allografted in C57BL6 mouse assessed as increase in infiltration of CD8+ cells at 2 to 5 mg/kg, ig for 21 days by Flow cytometric analysis. The format is functional, organism-based. As to conditions: dose 2-5 mg/kg, time 21.0 day. (A flow cytometer gives signals particle by particle.)

The target in data set [2] is T1, Programmed cell death protein 1/Programmed cell death 1 ligand 1 (Homo sapiens, UniProt Q15116+Q9NZQ7). Kind of data set: Inhibition of human PD-1/PD-L1 interaction assessed as disruption of PD-1/PD-L1 complex incubated for 2 hrs by Tag-1 Eu3+ and anti-Tag2-XL665 based HTRF assay. Type of data set: protein-complex assay.
T1 sequence (Q15116 whole entry): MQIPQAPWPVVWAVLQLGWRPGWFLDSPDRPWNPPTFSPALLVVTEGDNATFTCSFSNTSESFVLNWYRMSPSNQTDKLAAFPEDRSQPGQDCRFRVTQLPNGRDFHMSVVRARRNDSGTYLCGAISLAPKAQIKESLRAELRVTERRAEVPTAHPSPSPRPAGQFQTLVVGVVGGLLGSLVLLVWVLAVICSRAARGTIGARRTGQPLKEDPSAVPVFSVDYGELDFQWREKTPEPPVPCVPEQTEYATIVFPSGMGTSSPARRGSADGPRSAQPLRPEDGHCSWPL
T1 sequence (Q9NZQ7 whole entry): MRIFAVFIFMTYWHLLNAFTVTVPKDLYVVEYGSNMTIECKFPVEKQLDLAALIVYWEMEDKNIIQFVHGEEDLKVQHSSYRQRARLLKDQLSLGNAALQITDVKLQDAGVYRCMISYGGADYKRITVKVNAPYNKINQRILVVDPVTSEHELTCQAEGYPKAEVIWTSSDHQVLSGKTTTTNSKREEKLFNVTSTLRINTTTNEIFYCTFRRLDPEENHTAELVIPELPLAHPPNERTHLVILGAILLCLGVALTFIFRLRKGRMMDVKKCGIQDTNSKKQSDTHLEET
Data set [3] addresses T1, Programmed cell death protein 1/Programmed cell death 1 ligand 1. As to the kind of experiment: Potency index, ratio of BMS-202 IC50 to test compound IC50 for inhibition of human PD-1/PD-L1 interaction assessed as disruption of PD-1/PD-L1 complex incubated for 2 hrs by Tag-1 Eu3+ and anti-Tag2-XL665 based HTRF assay. Type of data set: protein-complex assay. Background: TR-FRET usually uses a lanthanide donor and a delayed reading to cut background.

Data set [4] concerns the target Programmed cell death 1 ligand 1 (Mus musculus) (UniProt Q9EP73). Kind of data set: Binding affinity to PDL1 in mouse lewis lung carcinoma cells assessed as thermal stability at 0.1 to 100 nM at 58 degC after 12 hrs by CESTA analysis. Type of data set: tissue-based. The note with it: Lewis lung carcinoma cell line, dose 0.1-100 nM.
Data set [5] shares this target. As to the kind of experiment: Binding affinity to PDL1 in mouse lewis lung carcinoma cells assessed as thermal stability at 3 nM at 43 to 70 degC after 12 hrs by CESTA analysis. As to conditions: Lewis lung carcinoma cell line.
The test system of data set [6] is T-cell. Kind of data set: Upregulation of IFNgamma protein expression in CON-A stimulated C57BL6 mouse lymphnode T cell co-cultured with Lewis lung carcinoma cell line at 0.3 to 30 nM by ELISA. The format is functional, tissue-based. The note with it: dose 0.3-30 nM. On the technique in general: ELISA stands for enzyme-linked immunosorbent assay.
For data set [7], the system named is Lewis lung carcinoma. Kind of data set: Immunostimulatory activity in mouse lewis lung carcinoma cells allografted in C57BL6 mouse assessed as increase in infiltration of IFNgamm+/CD4+ cells at 2 to 5 mg/kg, ig for 21 days by Flow cytometric analysis. The format is functional, organism-based. As to conditions: dose 2-5 mg/kg, time 21.0 day.
Data set [8] has as its system Lewis lung carcinoma. Kind of data set: Immunostimulatory activity in mouse lewis lung carcinoma cells allografted in C57BL6 mouse assessed as increase in infiltration of CD8+/CD45+/CD3+ cells at 2 to 5 mg/kg, ig for 21 days by Flow cytometric analysis. The note with it: dose 2-5 mg/kg, time 21.0 day. The format is functional, organism-based.
For data set [9], the system named is PBMC. Kind of data set: Upregulation of IFNgamma protein expression in CD3/CD28/PD-L1 stimulated PBMC (unknown origin) at 0.3 to 30 nM by ELISA. Type of data set: functional, tissue-based. The note with it: Homo sapiens, dose 0.3-30 nM.
In data set [10] the test system is PBMC. Kind of data set: Induction of immuno-regulatory activity in CD3/CD28/PD-L1 stimulated PBMC (unknown origin) at 0.3 to 30 nM by Western blot analysis. The format is functional, tissue-based. The note with it: Homo sapiens, dose 0.3-30 nM.
A short description of data set [11]: Cytotoxicity against mouse lewis lung carcinoma cells assessed as reduction in cell viability at 0.3 to 3000 nM and measured after 24 to 72 hrs by MTT assay. As to conditions: 3 µM, dose lower 0.3 nM, time lower 24 hrs, dose upper 3000 nM, time upper 72 hrs. The format is cell-based.
For data set [12], the system named is T-cell. Kind of data set: Cytotoxicity against C57BL6 mouse lymphnode T cell cells assessed as reduction in cell viability at 3000 nM and measured after 24 to 72 hrs by MTT assay. As to conditions: 3 µM, time 24-72 hrs. Type of data set: cell-based.
Data set [13] has as its system Lewis lung carcinoma. Kind of data set: Anti-tumor activity against mouse lewis lung carcinoma cells allografted in C57BL6 mouse assessed as reduction in tumor growth at 2 to 5 mg/kg, ig for 21 days. The format is functional, organism-based. As to conditions: dose 2-5 mg/kg, time 21.0 day.
Data set [14] is described as follows: Anti-tumor activity against mouse lewis lung carcinoma cells allografted in C57BL6 mouse assessed as reduction in tumor growth at 5 mg/kg, ig for 21 days relative to control. Type of data set: functional. As to conditions: po, 504 h, time 21 day, read-out: TGI.
A short description of data set [15]: Anti-tumor activity against mouse lewis lung carcinoma cells allografted in C57BL6 mouse assessed as reduction in tumor growth at 2 mg/kg, ig for 21 days relative to control. The format is functional. As to conditions: po, 504 h, time 21 day, read-out: TGI.
For data set [16], the system named is Mus musculus. As to the kind of experiment: Toxicity in C57BL6 mouse allografted with mouse lewis lung carcinoma cells assessed as reduction body weight at 2 mg/kg, ig for 21 days. The format is organism-based. As to conditions: in vivo, po, 504 h, time 21 day.
For data set [17], the system named is Mus musculus. As to the kind of experiment: Toxicity in C57BL6 mouse allografted with mouse lewis lung carcinoma cells assessed as reduction body weight at 5 mg/kg, ig for 21 days. Type of data set: organism-based. The note with it: in vivo, po, 504 h, time 21 day.
The subject of data set [18] is Lewis lung carcinoma. As to the kind of experiment: Anti-tumor activity against mouse lewis lung carcinoma cells allografted in C57BL6 mouse assessed as reduction PCNA protein expression level at 2 to 5 mg/kg, ig for 21 days by immunohistochemistry analysis. As to conditions: dose 2-5 mg/kg, time 21.0 day. The format is functional, organism-based.
The test system of data set [19] is Lewis lung carcinoma. Kind of data set: Induction of apoptosis in mouse lewis lung carcinoma cells allografted in C57BL6 mouse assessed as Increase in TUNEL positive cells at 2 to 5 mg/kg, ig for 21 days by TUNEL assay. As to conditions: dose 2-5 mg/kg, time 21.0 day. The format is functional, organism-based.
Data set [20] concerns Mus musculus. As to the kind of experiment: Upregulation of IFNgamma protein expression in C57BL6 mouse serum allografted with mouse lewis lung carcinoma cells at 2.5 to 5 mg/kg, ig for 21 days by ELISA. The format is functional, organism-based. The note with it: dose 2.5-5 mg/kg, time 21.0 day.
The subject of data set [21] is Lewis lung carcinoma. Kind of data set: Immunostimulatory activity in mouse lewis lung carcinoma cells allografted in C57BL6 mouse assessed as increase in infiltration of total immune cells at 2 to 5 mg/kg, ig for 21 days by Flow cytometric analysis. The format is functional, organism-based. As to conditions: dose 2-5 mg/kg, time 21.0 day.
The test system of data set [22] is Lewis lung carcinoma. Kind of data set: Immunostimulatory activity in mouse lewis lung carcinoma cells allografted in C57BL6 mouse assessed as increase in infiltration of T cells at 2 to 5 mg/kg, ig for 21 days by Flow cytometric analysis. The format is functional, organism-based. As to conditions: dose 2-5 mg/kg, time 21.0 day.

Sequence of Programmed cell death 1 ligand 1 (Mus musculus) (Q9EP73 whole entry): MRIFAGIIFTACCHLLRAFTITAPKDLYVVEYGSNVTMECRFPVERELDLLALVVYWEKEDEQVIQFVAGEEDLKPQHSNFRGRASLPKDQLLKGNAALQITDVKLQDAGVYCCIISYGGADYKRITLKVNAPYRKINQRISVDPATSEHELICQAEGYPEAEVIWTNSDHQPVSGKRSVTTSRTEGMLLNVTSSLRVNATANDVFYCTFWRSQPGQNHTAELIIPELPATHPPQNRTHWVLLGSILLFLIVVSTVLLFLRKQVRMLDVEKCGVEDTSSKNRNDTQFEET

As to `Cc1c(COc2cc(OCc3cccc(C#N)c3)c(CN[C@H](C(=O)O)[C@@H](C)O)cc2[N+](=O)[O-])cccc1-c1ccccc1`, the outcome (in the data set with Lewis lung carcinoma [1]; in data set [5]; in the data set with Lewis lung carcinoma [7]; in the data set on Lewis lung carcinoma [8]; with Lewis lung carcinoma [21]; with Lewis lung carcinoma [22]) was Active. In addition, the IC50 in data set [2] came to 2.7 nM. In data set [3], the Ratio IC50 came to 25. The Activity entry in data set [4] is “Dose-Dependent Effect”; with T-cell [6], “Dose-Dependent Effect”; in the data set on PBMC [9] it was “Dose-Dependent Effect”; in the data set with PBMC [10], “Dose-Dependent Effect”; in [11], “Non-Toxic”; in the data set on T-cell [12] it was “Non-Toxic”. For the same molecule, the Activity result in the data set with Mus musculus [16] was “Non-Toxic”; in the data set on Mus musculus [17] it was “Non-Toxic”; in the data set with Lewis lung carcinoma [18] it was “Dose-Dependent Effect”; in the data set with Lewis lung carcinoma [19], “Dose-Dependent Effect”; in the data set on Mus musculus [20], “Dose-Dependent Effect”. For the same molecule, the TGI result in the data set with Lewis lung carcinoma [13] was “Dose-Dependent Effect”. Further, the inhibition in vivo at 5 mg/kg in data set [14] amounted to 48.5%. The inhibition in vivo at 2 mg/kg in data set [15] was determined as 17.3%.
